In this experiment the test system is Lewis lung carcinoma i.m., BDF1 mice, T/C %. Nature of the experiment: NCI In Vivo Anticancer Drug Screen. Data for tumor model Lewis Lung Carcinoma (intramuscular) in B6D2F1 (BDF1) mice. In a few lines: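 Value is the ratio of a treated-group measurement (T) to the matching vehicle-control measurement (C), using either survival or tumour size in mice bearing transplanted tumours.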

Where [1] appears, read: endpoint: mean tumor weight, dose: 6.25 mg/kg/injection, schedule: Q01DX011 (ip), vehicle: other, higher = larger tumour.
Where [2] appears, read: endpoint: median survival time, dose: 12.5 mg/kg/injection, schedule: Q01DX011 (ip), vehicle: other, higher = longer survival.

The structures appear in SMILES notation. Where “and” joins values, the source holds several entries; their conditions need not be identical. Identical values can stand only once. Records with an inconclusive call do not appear.

These results are taken from PubChem BioAssay AID272 (DTP/NCI, 2004).

On to `O=C1N[C@@H]([C@H]2CC[C@H](Cl)CN2)C(=O)N[C@H]1[C@H]1CC[C@H](Cl)CN1`, for which the T/C (endpoint: mean tumor weight, dose: 0.5 mg/kg/injection, schedule: Q01DX011 (ip), vehicle: saline, higher = larger tumour) is 67 % of control and 92 % of control; the T/C (endpoint: mean tumor weight, dose: 1.0 mg/kg/injection, schedule: Q01DX011 (ip), vehicle: saline, higher = larger tumour) was 65 % of control and 87 % of control; the T/C (endpoint: mean tumor weight, dose: 2.0 mg/kg/injection, schedule: Q01DX011 (ip), vehicle: saline, higher = larger tumour) was 42 % of control and 64 % of control; the T/C (endpoint: median survival time, dose: 0.5 mg/kg/injection, schedule: Q01DX011 (ip), vehicle: saline, higher = longer survival) was 105 % of control and 116 % of control; the T/C (endpoint: median survival time, dose: 1.0 mg/kg/injection, schedule: Q01DX011 (ip), vehicle: saline, higher = longer survival) is 95 % of control and 119 % of control.

As for `O=P1(NCCCl)OCCCN1CCCl` (stereo unspecified), the T/C (endpoint: mean tumor weight, dose: 23.0 mg/kg/injection, schedule: Q01DX011 (ip), vehicle: water, higher = larger tumour) was 101 % of control; the T/C (endpoint: mean tumor weight, dose: 39.0 mg/kg/injection, schedule: Q01DX011 (ip), vehicle: water, higher = larger tumour) is 66 % of control; the T/C (endpoint: mean tumor weight, dose: 108.0 mg/kg/injection, schedule: Q01DX001 (ip), vehicle: water, higher = larger tumour) is 72 % of control; the T/C (endpoint: mean tumor weight, dose: 180.0 mg/kg/injection, schedule: Q01DX001 (ip), vehicle: water, higher = larger tumour) was 14 % of control; the T/C (endpoint: median survival time, dose: 23.0 mg/kg/injection, schedule: Q01DX011 (ip), vehicle: water, higher = longer survival) is 118 % of control and 122 % of control; the T/C (endpoint: median survival time, dose: 39.0 mg/kg/injection, schedule: Q01DX011 (ip), vehicle: water, higher = longer survival) is 94 % of control and 124 % of control. The T/C is, setting by setting: (endpoint: median survival time, dose: 65.0 mg/kg/injection, schedule: Q07DX Z (ip), vehicle: water, higher = longer survival) 110 % of control; (endpoint: median survival time, dose: 108.0 mg/kg/injection, schedule: Q01DX001 (ip), vehicle: water, higher = longer survival) 88 % of control and 98 % of control; (endpoint: median survival time, dose: 108.0 mg/kg/injection, schedule: Q01DX011 (ip), vehicle: water, higher = longer survival) 104 % of control; (endpoint: median survival time, dose: 108.0 mg/kg/injection, schedule: Q04DX Z (ip), vehicle: water, higher = longer survival) 98 % of control; (endpoint: median survival time, dose: 108.0 mg/kg/injection, schedule: Q07DX Z (ip), vehicle: water, higher = longer survival) 112 % of control; (endpoint: median survival time, dose: 180.0 mg/kg/injection, schedule: Q01DX001 (ip), vehicle: water, higher = longer survival) 114 % of control. The T/C by setting is: (endpoint: median survival time, dose: 180.0 mg/kg/injection, schedule: Q07DX Z (ip), vehicle: water, higher = longer survival) 104 % of control; (endpoint: median survival time, dose: 300.0 mg/kg/injection, schedule: Q01DX001 (ip), vehicle: water, higher = longer survival) 164 % of control and 178 % of control; (endpoint: median survival time, dose: 300.0 mg/kg/injection, schedule: Q04DX Z (ip), vehicle: water, higher = longer survival) 120 % of control; (endpoint: median survival time, dose: 300.0 mg/kg/injection, schedule: Q07DX Z (ip), vehicle: water, higher = longer survival) 158 % of control.

Take `Nc1nc2c(c(=O)[nH]1)NC(CCNc1ccc(C(=O)NC(CCC(=O)O)C(=O)O)cc1)CN2` (stereo unspecified): the T/C is 112 % of control (endpoint: mean tumor weight (est.), dose: 3.13 mg/kg/injection, schedule: Q01DX011 (ip), vehicle: other, higher = larger tumour); 81 % of control (endpoint: mean tumor weight (est.), dose: 6.25 mg/kg/injection, schedule: Q01DX011 (ip), vehicle: other, higher = larger tumour); 104 % of control (endpoint: mean tumor weight (est.), dose: 12.5 mg/kg/injection, schedule: Q01DX011 (ip), vehicle: other, higher = larger tumour); 99 % of control (endpoint: mean tumor weight (est.), dose: 25.0 mg/kg/injection, schedule: Q01DX011 (ip), vehicle: other, higher = larger tumour); 68 % of control (endpoint: mean tumor weight (est.), dose: 50.0 mg/kg/injection, schedule: Q01DX011 (ip), vehicle: other, higher = larger tumour); 63 % of control (endpoint: mean tumor weight (est.), dose: 100.0 mg/kg/injection, schedule: Q01DX011 (ip), vehicle: other, higher = larger tumour). The T/C is, setting by setting: under setting [1], 100 % of control; (endpoint: mean tumor weight, dose: 25.0 mg/kg/injection, schedule: Q01DX011 (ip), vehicle: other, higher = larger tumour) 101 % of control; (endpoint: mean tumor weight, dose: 50.0 mg/kg/injection, schedule: Q01DX011 (ip), vehicle: other, higher = larger tumour) 78 % of control; (endpoint: mean tumor weight, dose: 100.0 mg/kg/injection, schedule: Q01DX011 (ip), vehicle: other, higher = larger tumour) 68 % of control; (endpoint: median survival time, dose: 6.25 mg/kg/injection, schedule: Q01DX011 (ip), vehicle: other, higher = longer survival) 94 % of control; under setting [2], 103 % of control. For the same compound, the T/C (endpoint: median survival time, dose: 25.0 mg/kg/injection, schedule: Q01DX011 (ip), vehicle: other, higher = longer survival) was 98 % of control and the T/C (endpoint: median survival time, dose: 100.0 mg/kg/injection, schedule: Q01DX011 (ip), vehicle: other, higher = longer survival) was 108 % of control.

In the case of `ClC1=NC(Cl)C(Cl)=N/C1=N\c1ncn[nH]1` (stereo unspecified), the T/C (endpoint: median survival time, dose: 4.0 mg/kg/injection, schedule: Q01DX011 (ip), vehicle: saline, higher = longer survival) is 108 % of control; the T/C (endpoint: median survival time, dose: 8.0 mg/kg/injection, schedule: Q01DX011 (ip), vehicle: saline, higher = longer survival) is 91 % of control; the T/C (endpoint: median survival time, dose: 16.0 mg/kg/injection, schedule: Q01DX011 (ip), vehicle: saline, higher = longer survival) was 92 % of control.

On to `Nc1ncnc2c1ncn2Cc1ccccc1`, for which the T/C runs as follows: (endpoint: mean tumor weight (est.), dose: 12.5 mg/kg/injection, schedule: Q01DX011 (ip), vehicle: saline with Tween-80, higher = larger tumour) 101 % of control; (endpoint: mean tumor weight (est.), dose: 25.0 mg/kg/injection, schedule: Q01DX011 (ip), vehicle: saline with Tween-80, higher = larger tumour) 102 % of control; (endpoint: mean tumor weight (est.), dose: 50.0 mg/kg/injection, schedule: Q01DX011 (ip), vehicle: saline with Tween-80, higher = larger tumour) 76 % of control; (endpoint: mean tumor weight (est.), dose: 100.0 mg/kg/injection, schedule: Q01DX011 (ip), vehicle: saline with Tween-80, higher = larger tumour) 67 % of control; (endpoint: median survival time, dose: 12.5 mg/kg/injection, schedule: Q01DX011 (ip), vehicle: saline with Tween-80, higher = longer survival) 89 % of control; (endpoint: median survival time, dose: 25.0 mg/kg/injection, schedule: Q01DX011 (ip), vehicle: saline with Tween-80, higher = longer survival) 100 % of control. Moreover, the T/C reads like this: (endpoint: median survival time, dose: 50.0 mg/kg/injection, schedule: Q01DX011 (ip), vehicle: saline with Tween-80, higher = longer survival) 93 % of control; (endpoint: median survival time, dose: 100.0 mg/kg/injection, schedule: Q01DX011 (ip), vehicle: saline with Tween-80, higher = longer survival) 97 % of control.

Take `CC(=O)[C@@]1(O)CC[C@H]2[C@@H]3C[C@H](C)C4=CC(=O)C=C[C@]4(C)[C@@]3(F)[C@@H](O)C[C@@]21C`: the T/C by setting is: (endpoint: mean tumor weight, dose: 12.5 mg/kg/injection, schedule: Q01DX011 (ip), vehicle: steriod suspending solution, higher = larger tumour) 40 % of control; (endpoint: mean tumor weight, dose: 25.0 mg/kg/injection, schedule: Q01DX011 (ip), vehicle: steriod suspending solution, higher = larger tumour) 26 % of control; (endpoint: mean tumor weight, dose: 50.0 mg/kg/injection, schedule: Q01DX011 (ip), vehicle: steriod suspending solution, higher = larger tumour) 19 % of control; (endpoint: median survival time, dose: 12.5 mg/kg/injection, schedule: Q01DX011 (ip), vehicle: steriod suspending solution, higher = longer survival) 107 % of control; (endpoint: median survival time, dose: 25.0 mg/kg/injection, schedule: Q01DX011 (ip), vehicle: steriod suspending solution, higher = longer survival) 94 % of control and 112 % of control.

Turning to `CSc1ncnc2nc[nH]c12`, the T/C is 79 % of control (endpoint: mean tumor weight (est.), dose: 1.56 mg/kg/injection, schedule: Q01DX011 (ip), vehicle: saline, higher = larger tumour); 79 % of control (endpoint: mean tumor weight (est.), dose: 3.12 mg/kg/injection, schedule: Q01DX011 (ip), vehicle: saline, higher = larger tumour); 85 % of control (endpoint: mean tumor weight (est.), dose: 6.25 mg/kg/injection, schedule: Q01DX011 (ip), vehicle: saline, higher = larger tumour); 78 % of control (endpoint: mean tumor weight (est.), dose: 12.5 mg/kg/injection, schedule: Q01DX011 (ip), vehicle: saline, higher = larger tumour); 80 % of control (endpoint: mean tumor weight (est.), dose: 25.0 mg/kg/injection, schedule: Q01DX011 (ip), vehicle: saline, higher = larger tumour); 89 % of control (endpoint: mean tumor weight (est.), dose: 50.0 mg/kg/injection, schedule: Q01DX011 (ip), vehicle: saline, higher = larger tumour). For the same compound, the T/C is, setting by setting: (endpoint: mean tumor weight (est.), dose: 100.0 mg/kg/injection, schedule: Q01DX011 (ip), vehicle: saline, higher = larger tumour) 62 % of control; (endpoint: mean tumor weight, dose: 3.12 mg/kg/injection, schedule: Q01DX011 (ip), vehicle: other, higher = larger tumour) 96 % of control; under setting [1], 79 % of control; (endpoint: mean tumor weight, dose: 12.5 mg/kg/injection, schedule: Q01DX011 (ip), vehicle: other, higher = larger tumour) 73 % of control; (endpoint: median survival time, dose: 1.56 mg/kg/injection, schedule: Q01DX011 (ip), vehicle: other, higher = longer survival) 104 % of control; (endpoint: median survival time, dose: 1.56 mg/kg/injection, schedule: Q01DX011 (ip), vehicle: saline, higher = longer survival) 92 % of control. Also, the T/C reads like this: (endpoint: median survival time, dose: 3.12 mg/kg/injection, schedule: Q01DX011 (ip), vehicle: saline, higher = longer survival) 92 % of control; (endpoint: median survival time, dose: 6.25 mg/kg/injection, schedule: Q01DX011 (ip), vehicle: saline, higher = longer survival) 90 % of control; under setting [2], 93 % of control and 100 % of control; (endpoint: median survival time, dose: 12.5 mg/kg/injection, schedule: Q01DX011 (ip), vehicle: saline, higher = longer survival) 88 % of control; (endpoint: median survival time, dose: 25.0 mg/kg/injection, schedule: Q01DX011 (ip), vehicle: saline, higher = longer survival) 92 % of control; (endpoint: median survival time, dose: 50.0 mg/kg/injection, schedule: Q01DX011 (ip), vehicle: other, higher = longer survival) 109 % of control. Also, the T/C was 90 % of control (endpoint: median survival time, dose: 50.0 mg/kg/injection, schedule: Q01DX011 (ip), vehicle: saline, higher = longer survival) and 105 % of control (endpoint: median survival time, dose: 100.0 mg/kg/injection, schedule: Q01DX011 (ip), vehicle: saline, higher = longer survival).
